Counter-ions that a name gives are not always drawn.
Tests used:
Gram-positive bacteria = details: background statement; cited from earlier work
[1] = 21 °C and standard pressure; cited from earlier work
[2] = Solubility observed on preparing formulations; format: physicochemical; details: pH 5.5 versus pH 5.0

## CN[C@H]1C(=O)N[C@@H]2Cc3ccc(cc3)Oc3cc4cc(c3O[C@@H]3O[C@H](C(=O)O)[C@@H](O)[C@H](O)[C@H]3NC(=O)CCCCCCCCC(C)C)Oc3ccc(cc3Cl)[C@@H](O)[C@@H]3NC(=O)[C@H](NC(=O)[C@@H]4NC(=O)[C@@H](NC2=O)c2cc(cc(O)c2Cl)Oc2cc1ccc2O)c1ccc(O)c(c1)-c1c(O[C@H]2O[C@H](CO)[C@@H](O)[C@H](O)[C@@H]2O)cc(O)cc1[C@@H](C(=O)NCCCN(C)C)NC3=O [Dalbavancin]
Gram-positive bacteria
  Antibiotic activity: strong antibiotic activity

## CC(O)C(=O)O (stereo not drawn) [lactic acid]
[1]
  pKa: 3.7

## CN[C@H]1C(=O)N[C@@H]2Cc3ccc(cc3)Oc3cc4cc(c3O[C@@H]3O[C@H](C(=O)O)[C@@H](O)[C@H](O)[C@H]3NC(=O)CCCCCCCCC(C)C)Oc3ccc(cc3Cl)[C@@H](O)[C@@H]3NC(=O)[C@H](NC(=O)[C@@H]4NC(=O)[C@@H](NC2=O)c2cc(cc(O)c2Cl)Oc2cc1ccc2O)c1ccc(O)c(c1)-c1c(O[C@H]2O[C@H](CO)[C@@H](O)[C@H](O)[C@@H]2O)cc(O)cc1[C@@H](C(=O)NCCCN(C)C)NC3=O [dalbavancin hydrochloride]
[2]
  Solubility: reduced solubility

From US20260335229A1, “NOVEL COMPOSITIONS” (priority 2025, published 2026)
